In the kinase profiling compilation of Christmann-Franck et al. (2016):

Assays:
Experiment in all cases: radiometric filter-binding kinase assay
MAP3K5 (human) = MAP3K5 (human) (UniProt Q99683)
GCK (human) = GCK (human) (UniProt Q12851)
EEF2K (human) = EEF2K (human) (UniProt O00418)
MARK3 (human) = MARK3 (human) (UniProt P27448)
BRSK2 (human) = BRSK2 (human) (UniProt Q8IWQ3)
MAPK3 (human) = MAPK3 (human) (UniProt P27361)
MAPK1 (human) = MAPK1 (human) (UniProt P28482)
RPS6KA1 KD1 KD2 (human) = RPS6KA1 KD1 KD2 (human) (UniProt Q15418)
RPS6KA3 KD1 KD2 (human) = RPS6KA3 KD1 KD2 (human) (UniProt P51812); details: compound 0.1 µM
NUAK1 (human) = NUAK1 (human) (UniProt O60285)
FLT1 (human) = FLT1 (human) (UniProt P17948)
MAP3K1 (human) = MAP3K1 (human) (UniProt Q13233)
CDK2 CCNA2 (human) = CDK2 CCNA2 (human) (UniProt P20248+P24941)
EPHB4 (human) = EPHB4 (human) (UniProt P54760)
[1] = test system: SGK1 (human), O00141 [S422D]
NTRK1 (human) = NTRK1 (human) (UniProt P04629)
JAK2 JH1 JH2 (human) = JAK2 JH1 JH2 (human) (UniProt O60674)
PLK1 (human) = PLK1 (human) (UniProt P53350)
Chain of PLK1 (human) (P53350 whole entry, looked up): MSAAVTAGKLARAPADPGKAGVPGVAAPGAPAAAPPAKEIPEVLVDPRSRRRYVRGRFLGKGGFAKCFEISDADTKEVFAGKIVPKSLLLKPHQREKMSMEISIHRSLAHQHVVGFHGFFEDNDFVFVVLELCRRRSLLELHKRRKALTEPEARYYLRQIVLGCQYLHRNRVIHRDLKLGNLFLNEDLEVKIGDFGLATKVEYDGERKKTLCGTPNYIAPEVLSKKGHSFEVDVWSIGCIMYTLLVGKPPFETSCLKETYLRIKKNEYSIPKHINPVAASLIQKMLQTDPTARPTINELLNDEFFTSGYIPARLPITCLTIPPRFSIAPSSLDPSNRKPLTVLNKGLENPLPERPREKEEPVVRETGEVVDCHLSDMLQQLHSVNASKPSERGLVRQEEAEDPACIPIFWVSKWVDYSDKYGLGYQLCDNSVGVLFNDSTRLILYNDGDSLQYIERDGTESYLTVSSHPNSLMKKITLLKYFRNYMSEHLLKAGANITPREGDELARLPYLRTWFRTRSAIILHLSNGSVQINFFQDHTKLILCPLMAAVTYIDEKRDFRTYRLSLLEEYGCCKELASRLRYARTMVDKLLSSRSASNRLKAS

Chain of MAPK3 (human) (P27361 whole entry, looked up): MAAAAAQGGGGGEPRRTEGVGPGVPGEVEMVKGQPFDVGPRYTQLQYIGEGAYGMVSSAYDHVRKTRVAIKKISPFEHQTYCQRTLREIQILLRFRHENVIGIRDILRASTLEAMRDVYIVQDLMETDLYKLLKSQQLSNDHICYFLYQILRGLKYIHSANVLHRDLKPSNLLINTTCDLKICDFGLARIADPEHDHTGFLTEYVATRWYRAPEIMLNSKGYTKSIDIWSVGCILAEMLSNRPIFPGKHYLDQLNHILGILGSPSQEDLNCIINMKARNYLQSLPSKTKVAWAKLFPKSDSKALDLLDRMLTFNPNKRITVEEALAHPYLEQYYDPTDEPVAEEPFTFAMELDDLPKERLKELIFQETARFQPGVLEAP
Chain of RPS6KA1 KD1 KD2 (human) (Q15418 whole entry, looked up): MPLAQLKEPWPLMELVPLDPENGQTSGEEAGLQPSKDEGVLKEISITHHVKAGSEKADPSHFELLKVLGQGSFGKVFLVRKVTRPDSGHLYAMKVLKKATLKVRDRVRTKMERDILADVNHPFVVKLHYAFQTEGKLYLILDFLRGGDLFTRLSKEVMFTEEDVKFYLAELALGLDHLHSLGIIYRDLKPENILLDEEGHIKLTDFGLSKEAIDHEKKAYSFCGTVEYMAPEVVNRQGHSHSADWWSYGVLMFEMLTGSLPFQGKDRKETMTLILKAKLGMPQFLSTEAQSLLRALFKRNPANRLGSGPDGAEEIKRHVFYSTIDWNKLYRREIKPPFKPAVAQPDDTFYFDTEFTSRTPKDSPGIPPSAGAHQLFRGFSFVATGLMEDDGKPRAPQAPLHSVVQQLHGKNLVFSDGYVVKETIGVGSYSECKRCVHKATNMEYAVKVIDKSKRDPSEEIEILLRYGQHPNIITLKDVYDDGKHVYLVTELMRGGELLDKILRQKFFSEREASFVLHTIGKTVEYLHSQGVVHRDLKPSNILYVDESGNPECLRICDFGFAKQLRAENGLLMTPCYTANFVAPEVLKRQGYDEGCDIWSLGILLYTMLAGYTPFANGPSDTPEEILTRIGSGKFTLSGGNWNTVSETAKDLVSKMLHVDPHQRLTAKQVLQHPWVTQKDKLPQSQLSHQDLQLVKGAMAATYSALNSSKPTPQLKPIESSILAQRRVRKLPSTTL
Chain of NUAK1 (human) (O60285 whole entry, looked up): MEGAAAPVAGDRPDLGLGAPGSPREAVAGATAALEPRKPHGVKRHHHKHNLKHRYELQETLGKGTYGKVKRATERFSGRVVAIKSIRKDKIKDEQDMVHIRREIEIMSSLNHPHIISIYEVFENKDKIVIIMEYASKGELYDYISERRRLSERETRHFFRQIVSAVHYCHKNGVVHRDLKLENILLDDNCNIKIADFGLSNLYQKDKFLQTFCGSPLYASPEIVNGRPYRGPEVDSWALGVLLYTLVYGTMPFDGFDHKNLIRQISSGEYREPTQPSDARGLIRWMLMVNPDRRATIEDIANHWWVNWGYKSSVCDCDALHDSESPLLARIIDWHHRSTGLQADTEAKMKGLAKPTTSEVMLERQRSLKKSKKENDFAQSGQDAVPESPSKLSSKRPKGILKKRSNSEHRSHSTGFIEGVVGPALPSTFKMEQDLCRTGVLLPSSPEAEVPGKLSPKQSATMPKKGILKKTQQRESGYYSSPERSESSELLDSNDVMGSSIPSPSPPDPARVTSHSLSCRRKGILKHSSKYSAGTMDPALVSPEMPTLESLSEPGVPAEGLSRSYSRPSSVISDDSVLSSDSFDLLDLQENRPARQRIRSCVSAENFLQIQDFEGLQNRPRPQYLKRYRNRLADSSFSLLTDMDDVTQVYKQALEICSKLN
Chain of NTRK1 (human) (P04629 whole entry, looked up): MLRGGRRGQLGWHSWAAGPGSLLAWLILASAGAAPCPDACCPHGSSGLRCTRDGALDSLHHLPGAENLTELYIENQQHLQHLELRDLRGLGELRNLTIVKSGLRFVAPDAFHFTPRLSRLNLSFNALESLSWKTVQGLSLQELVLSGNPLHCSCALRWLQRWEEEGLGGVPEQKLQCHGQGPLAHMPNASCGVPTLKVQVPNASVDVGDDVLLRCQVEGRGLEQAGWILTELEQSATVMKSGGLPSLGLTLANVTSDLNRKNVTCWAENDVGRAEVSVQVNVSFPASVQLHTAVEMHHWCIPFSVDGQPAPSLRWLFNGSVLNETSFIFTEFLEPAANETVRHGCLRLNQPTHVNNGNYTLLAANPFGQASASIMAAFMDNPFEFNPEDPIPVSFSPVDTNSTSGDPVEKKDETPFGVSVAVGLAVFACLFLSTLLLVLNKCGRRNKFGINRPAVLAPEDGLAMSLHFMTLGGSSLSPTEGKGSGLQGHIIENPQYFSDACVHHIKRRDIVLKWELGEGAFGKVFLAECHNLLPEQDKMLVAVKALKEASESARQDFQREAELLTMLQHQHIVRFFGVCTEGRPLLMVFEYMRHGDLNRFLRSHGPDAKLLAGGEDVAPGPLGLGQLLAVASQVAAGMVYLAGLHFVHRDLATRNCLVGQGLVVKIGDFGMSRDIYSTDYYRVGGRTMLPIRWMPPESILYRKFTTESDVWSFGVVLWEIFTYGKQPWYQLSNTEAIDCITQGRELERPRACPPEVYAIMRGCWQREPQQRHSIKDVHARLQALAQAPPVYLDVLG
Chain of MAP3K1 (human) (Q13233 whole entry, looked up): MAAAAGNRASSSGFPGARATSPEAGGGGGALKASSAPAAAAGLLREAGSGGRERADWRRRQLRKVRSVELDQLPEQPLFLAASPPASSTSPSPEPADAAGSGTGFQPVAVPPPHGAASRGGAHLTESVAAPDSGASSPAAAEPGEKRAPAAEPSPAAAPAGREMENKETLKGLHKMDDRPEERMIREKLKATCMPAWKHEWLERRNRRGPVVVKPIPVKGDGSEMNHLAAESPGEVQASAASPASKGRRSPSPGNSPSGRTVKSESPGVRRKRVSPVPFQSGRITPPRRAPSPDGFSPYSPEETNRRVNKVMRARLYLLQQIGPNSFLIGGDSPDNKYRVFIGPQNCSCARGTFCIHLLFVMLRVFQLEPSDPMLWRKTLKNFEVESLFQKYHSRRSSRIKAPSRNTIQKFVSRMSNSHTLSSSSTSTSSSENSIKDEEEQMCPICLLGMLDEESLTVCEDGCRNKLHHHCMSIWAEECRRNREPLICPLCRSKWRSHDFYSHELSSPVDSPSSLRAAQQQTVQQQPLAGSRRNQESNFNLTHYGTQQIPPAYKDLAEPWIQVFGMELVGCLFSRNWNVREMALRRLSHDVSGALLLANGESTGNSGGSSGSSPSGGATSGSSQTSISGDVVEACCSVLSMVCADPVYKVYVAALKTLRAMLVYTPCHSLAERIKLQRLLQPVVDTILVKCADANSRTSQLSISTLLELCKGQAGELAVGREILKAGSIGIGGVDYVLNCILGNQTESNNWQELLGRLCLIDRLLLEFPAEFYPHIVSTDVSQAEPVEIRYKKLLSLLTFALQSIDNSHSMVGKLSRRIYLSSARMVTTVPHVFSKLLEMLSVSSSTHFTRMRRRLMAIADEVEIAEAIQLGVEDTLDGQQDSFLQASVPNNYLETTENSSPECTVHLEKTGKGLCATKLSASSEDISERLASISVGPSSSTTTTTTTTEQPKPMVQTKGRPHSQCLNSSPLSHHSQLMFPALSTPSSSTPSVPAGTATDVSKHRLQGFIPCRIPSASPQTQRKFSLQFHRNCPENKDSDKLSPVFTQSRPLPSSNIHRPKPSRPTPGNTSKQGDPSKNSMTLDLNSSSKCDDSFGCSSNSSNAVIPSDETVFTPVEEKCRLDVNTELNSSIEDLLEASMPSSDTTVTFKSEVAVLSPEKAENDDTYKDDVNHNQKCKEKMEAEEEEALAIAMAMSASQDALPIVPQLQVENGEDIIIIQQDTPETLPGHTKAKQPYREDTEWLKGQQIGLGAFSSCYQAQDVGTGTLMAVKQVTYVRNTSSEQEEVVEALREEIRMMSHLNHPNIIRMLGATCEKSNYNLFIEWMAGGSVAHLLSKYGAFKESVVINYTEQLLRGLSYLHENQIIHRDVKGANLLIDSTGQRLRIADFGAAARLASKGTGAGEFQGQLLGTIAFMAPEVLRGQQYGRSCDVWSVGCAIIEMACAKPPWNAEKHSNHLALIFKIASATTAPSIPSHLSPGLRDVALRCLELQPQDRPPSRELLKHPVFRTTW
Chain of MAPK1 (human) (P28482 whole entry, looked up): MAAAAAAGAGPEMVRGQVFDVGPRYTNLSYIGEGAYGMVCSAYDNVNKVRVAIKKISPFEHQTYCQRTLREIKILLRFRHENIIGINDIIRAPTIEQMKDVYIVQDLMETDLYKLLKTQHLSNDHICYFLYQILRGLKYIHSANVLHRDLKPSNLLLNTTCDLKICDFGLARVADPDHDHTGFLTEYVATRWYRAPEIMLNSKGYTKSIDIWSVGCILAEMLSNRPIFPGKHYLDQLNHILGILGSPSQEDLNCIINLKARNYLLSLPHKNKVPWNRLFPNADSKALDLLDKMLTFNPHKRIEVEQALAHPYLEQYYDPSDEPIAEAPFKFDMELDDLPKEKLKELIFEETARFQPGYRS

## CCn1c(-c2nonc2N)nc2cncc(CNC3CCNCC3)c21
MAP3K5 (human); compound 0.1 µM
  residual activity: 100%
MAP3K5 (human); compound 1.0 µM
  residual activity: 97%
MAP3K5 (human); compound 10.0 µM
  residual activity: 97%
GCK (human); compound 0.1 µM
  residual activity: 91%
GCK (human); compound 1.0 µM
  residual activity: 94%
GCK (human); compound 10.0 µM
  residual activity: 71%
EEF2K (human); compound 0.1 µM
  residual activity: 118%
EEF2K (human); compound 10.0 µM
  residual activity: 117%
MARK3 (human); compound 0.1 µM
  residual activity: 88%
MARK3 (human); compound 1.0 µM
  residual activity: 87%
MARK3 (human); compound 10.0 µM
  residual activity: 56%
BRSK2 (human); compound 0.1 µM
  residual activity: 96%
BRSK2 (human); compound 1.0 µM
  residual activity: 89%
BRSK2 (human); compound 10.0 µM
  residual activity: 41%
MAPK3 (human); compound 0.1 µM
  residual activity: 95%
MAPK3 (human); compound 1.0 µM
  residual activity: 98%
MAPK3 (human); compound 10.0 µM
  residual activity: 97%
MAPK1 (human); compound 0.1 µM
  residual activity: 113%
MAPK1 (human); compound 1.0 µM
  residual activity: 117%
MAPK1 (human); compound 10.0 µM
  residual activity: 115%
RPS6KA1 KD1 KD2 (human); compound 0.1 µM
  residual activity: 33%
RPS6KA1 KD1 KD2 (human); compound 1.0 µM
  residual activity: 15%
RPS6KA1 KD1 KD2 (human); compound 10.0 µM
  residual activity: 9%
RPS6KA3 KD1 KD2 (human)
  residual activity: 94%
NUAK1 (human); compound 0.1 µM
  residual activity: 101%
NUAK1 (human); compound 1.0 µM
  residual activity: 91%
NUAK1 (human); compound 10.0 µM
  residual activity: 59%
FLT1 (human); compound 0.1 µM
  residual activity: 103%
FLT1 (human); compound 1.0 µM
  residual activity: 105%
FLT1 (human); compound 10.0 µM
  residual activity: 83%
MAP3K1 (human); compound 0.1 µM
  residual activity: 94%
MAP3K1 (human); compound 1.0 µM
  residual activity: 93%
MAP3K1 (human); compound 10.0 µM
  residual activity: 112%
CDK2 CCNA2 (human); compound 0.1 µM
  residual activity: 83%
CDK2 CCNA2 (human); compound 1.0 µM
  residual activity: 81%
CDK2 CCNA2 (human); compound 10.0 µM
  residual activity: 56%
EPHB4 (human); compound 0.1 µM
  residual activity: 105%
EPHB4 (human); compound 1.0 µM
  residual activity: 105%
EPHB4 (human); compound 10.0 µM
  residual activity: 94%
[1]; compound 0.1 µM
  residual activity: 82%
[1]; compound 1.0 µM
  residual activity: 55%
[1]; compound 10.0 µM
  residual activity: 25%
NTRK1 (human); compound 0.1 µM
  residual activity: 104%
NTRK1 (human); compound 1.0 µM
  residual activity: 99%
NTRK1 (human); compound 10.0 µM
  residual activity: 97%
JAK2 JH1 JH2 (human); compound 0.1 µM
  residual activity: 108%
JAK2 JH1 JH2 (human); compound 1.0 µM
  residual activity: 103%
JAK2 JH1 JH2 (human); compound 10.0 µM
  residual activity: 110%
PLK1 (human); compound 0.1 µM
  residual activity: 83%
PLK1 (human); compound 1.0 µM
  residual activity: 60%
PLK1 (human); compound 10.0 µM
  residual activity: 41%
